These results are taken from patent publication US10682371B2, “Small molecule conjugates specifically activated in tumor microenvironment for targeting and use thereof” (priority 2014, dated 2020).

Like-named read-outs stand apart in the source and are kept apart here.

In one data set the test system is Human heart. It counts as biochemical. Conditions: Human heart, 1 mg/ml.
A short description of data set [1]: Solubility / formulation test in solvent 1 and solvent 2. It counts as physicochemical. The note with it: for Concentration achieved, completely dissolved in both solvent 1 and solvent 2: solvent 1 injectable water. The method, then: In Table 11, AAN, AANL and AANK indicate the linkage formed by small peptides in the compounds, A is Ala, N is Asn, L is Leu and K is Lys. […] The dissolution concentration is 10 mg/ml.
B1, B2, B3 and B4 and various control compounds were dried under vacuum, sterilized via gas sterilization, and separately packing in a sterile room. Before animal test, B1, B2, B3 and B4 were dissolved by solvent 1 (injectable water) or solvent 2 (30% alcohol, 70% injectable water) and diluted by injectable water to the desired concentration in sterile room. […] Change in solubility may greatly affect the formulation scheme of a drug.
D1, D2, D3, D4 and various control compounds were dried under vacuum, sterilized via gas sterilization, and separately packing in a sterile room. […] Change in solubility may greatly affect the formulation scheme of a drug.

The subject of data set [2] is Human prostate cancer PC-3 cells / Panc-1 cells. Put plainly: Tumor treatment in nude mice (PC-3 cells purchased, Panc-1 cells injected; Examples 22, 32, 42). It counts as in vivo. The note with it: for Size of tumor (mm^3) Day 10 / inhibitory rate on tumor Day 10 / Size of tumor (mm^3) Day 24 / inhibitory rate on tumor Day 24: nude mice, IV once weekly for four weeks, Paclitaxel 8 mg/kg; for Inhibition on tumor growth, in words: compared with parent drug group (same molar concentration) and control group. The method, then: 1) Human prostate cancer PC-3 cells were purchased from American type culture collection (ATCC) and identified according the specification provided by ATCC. Cells were cultivated in DMEM culture solution containing 10% fetal bovine serum at 37° C. and 5% CO2. The cells were passaged for every three days and cells within the 15th passage were used.
2) Production of tumor. 5×10^6Panc-1 cells were subcutaneously injected to the back of the nude mice. Mice were randomly grouped after the tumor reached at least 100 mm^3. Then treatment began and the day on which the treatment began was day 1.
The control group was administered by physiological saline. Drugs were administered once weekly for four weeks.
According to the clinical application of B1, B2, B3 and B4, drugs were intravenously injected (IV). […] The control group was administered by physiological saline. Drugs were administered once weekly for four weeks.

The next data set relates to 4T1 cells. Put plainly: BALB/C mice model for tumor metastasis (4T1, lung metastases). It counts as in vivo. The note with it: for Inhibitory effect on tumor metastasis, in words: compared with parent drug group and control group. The method, then:
1) 4T1 cells were purchased from American type culture collection (ATCC) and identified according the specification provided by ATCC. Cells were cultivated in DMEM culture solution containing 10% fetal bovine serum at 37° C. and 5% CO2. The cells were passaged for every three days and cells within the 15th passage were used.
2) Production of tumor metastasis. 10^6 […] were subcutaneously injected to the back of the BALB/C mice. Mice were randomly grouped after the tumor grew to about 1.5 cm. The subcutaneous tumor was removed by surgery and drug treatment began. Mice were killed after anesthesia on day 27. The whole lung was taken out and put into Bouin's solution for staining. The number of the tumor metastasized to lung was counted with anatomical microscope.
(§1) The control group was administered by physiological saline. Drugs were administered once for every three days for 4 times.
as §1
According to the clinical application of B1, B2, B3 and B4, drugs were intravenously injected (IV). […] The control group was administered by physiological saline. Drugs were administered once for every three days for 4 times.
According to the clinical application of D1, D2, D3 and D4, drugs were intravenously injected (IV). […] The control group was administered by physiological saline. Drugs were administered once for every three days for 4 times.

A further data set deals with BALB/C mice. The experiment in a line: Maximum tolerated dose (MTD) / acute toxicity by single intravenous injection. The note with it: for Behaviors and death observed: BALB/C mice receiving 90 mg/kg injection; for MTD (maximum tolerated dose): intravenous injection, one time.
The test system of data set [3] is Human fibrosarcoma HT-1080 tumor tissue homogenate. It is filed as biochemical. The note with it: Human fibrosarcoma HT-1080; 37° C., 1 mg/ml, 100 μg acidized homogenate. The method in brief:
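Compounds at 1 mg/ml were added to 100 μg of acidized tumor tissue homogenate (pH6.0) at 37° C. Proteases in the homogenate act on the compounds, and activation efficiency in each tissue was assessed.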

Where [4] appears, read: Table 28, BALB/C mice, 4T1, lung metastases day 27, IV every three days for 4 times, A1-A4 12 mg/kg, Paclitaxel 4 mg/kg.
Where [5] appears, read: single intravenous injection, 125 mg/kg, 10 BALB/C mice per group.
The mark [6] stands for this setting: single intravenous injection, 150 mg/kg, 10 BALB/C mice per group.
Where [7] appears, read: single intravenous injection, 175 mg/kg, 10 BALB/C mice per group.
Where [8] appears, read: single intravenous injection, 200 mg/kg, 10 BALB/C mice per group.
Setting [9] is: day 27, IV once every three days for 4 times, E1-E4 15 mg/kg, mitomycin 1 mg/kg.
[10] abbreviates: lung metastases counted on day 27, IV once every three days for 4 times, E1-E4 15 mg/kg, mitomycin 1 mg/kg.
Setting [11] is: 4T1, BALB/C mice, lung, day 27, IV every three days for 4 times, S1′-S4′ 12 mg/kg, Paclitaxel 4 mg/kg.

`COCCOCCOCCOCCOCCOCC(=O)NCCCC[C@H](NC(=O)COCCOCCOCCOCCOCCOC)C(=O)N[C@H](C)C(=O)N[C@H](C)C(=O)N[C@H](CC(N)=O)C(=O)Nc1ccc(COC(=O)OC(C(=O)OC2C[C@@]3(O)[C@@H](OC(=O)c4ccccc4)[C@H]4[C@](C)(C(=O)[C@H](OC(C)=O)C(=C2C)C3(C)C)[C@@H](O)CC2OC[C@]24OC(C)=O)[C@@H](NC(=O)c2ccccc2)c2ccccc2)cc1` (some centres unmarked) [Compound A2]: the “Activation ratio (%) in homogenates from different tumor tissues” value in the data set on Human heart (acidized homogenate pH6.0, Paclitaxel release by HPLC) was “none”. Further, the “solubility in Solvent 1” value in data set [1] (solvent 1 (injectable water), Table 22, Paclitaxel series) was “soluble”. The “Concentration achieved, completely dissolved in both solvent 1 and solvent 2” value in data set [1] (solvent 2 45% alcohol, 55% injectable water) is 10000 µg/mL. Moreover, in data set [1] (solvent 2 (45% alcohol, 55% injectable water), Table 22, Paclitaxel series), the “solubility in Solvent 2” value is given as “soluble”. Further, the “Solubility in water, in words” value in data set [1] (water) is recorded as “can directly dissolve in water”. Also, in data set [2] (Table 26, A1-A4 24 mg/kg), the “Size of tumor (mm^3) Day 10” value was determined as 55.19 ± 56.2 mm^3, the “inhibitory rate on tumor Day 10” value turned out to be 81.3%, the “Size of tumor (mm^3) Day 24” value came to 44.43 ± 47.9 mm^3 and the “inhibitory rate on tumor Day 24” value is listed as 88.3%. Moreover, in data set [2], the “Inhibition on tumor growth, in words” value is reported as “greatly improved”. Besides, in the data set with 4T1 cells (setting [4]), the “Inhibitory rate on metastasis” value turned out to be 93.9% and the “Number of metastasized tumor” value was determined as 9 ± 5. In the data set with 4T1 cells, the “Inhibitory effect on tumor metastasis, in words” value (shortened to “Inhibitory effect”) is given as “greatly improved”. In addition, the “Behaviors and death observed” value in the data set with BALB/C mice is “no pilo-erection, hair tousle and lackluster, lethargy, stoop, irritable reaction and death”. Further, in the data set on BALB/C mice (BALB/C mice), the “MTD (maximum tolerated dose)” value is given as “about 90 mg/kg”. Further, in the data set with BALB/C mice (setting [5]), the “Mortality rate (%)” value is 10% and the “Number of dead animal” value turned out to be 2. Besides, in the data set with BALB/C mice (setting [6]), the “Mortality rate (%)” value is reported as 0% and the “Number of dead animal” value turned out to be 0. Besides, in the data set on BALB/C mice (setting [7]), the “Mortality rate (%)” value came out at 0% and the “Number of dead animal” value stood at 0. In addition, in the data set with BALB/C mice (setting [8]), the “Mortality rate (%)” value was 0% and the “Number of dead animal” value stood at 0.
For the compound `COCCOCCOCCOCCOCCOCC(=O)N[C@H](C)C(=O)N[C@H](C)C(=O)N[C@H](CC(N)=O)C(=O)Nc1ccc(COC(=O)N2[C@H]3[C@@H]2CN2C4=C(C(=O)C(N)=C(C)C4=O)[C@H](COC(N)=O)[C@]32OC)cc1` [Compound E2], the “Activation ratio (%) in homogenates from different tumor tissues” value in data set [3] was 85.7%. Moreover, the “Inhibitory effect” value with 4T1 cells is “greatly improved”. In addition, the “Inhibitory rate on metastasis” value in the data set on 4T1 cells (setting [9]) is given as 94.1%. Also, in the data set with 4T1 cells (setting [10]), the “Number of metastasized tumor” value was 8 ± 7. The “Mortality rate (%)” value worked out at 0% in the data set on BALB/C mice (50 mg/kg single IV injection, 10 BALB/C mice); 0% with BALB/C mice (70 mg/kg single IV injection, 10 BALB/C mice); 0% with BALB/C mice (90 mg/kg single IV injection, 10 BALB/C mice); 10% in the data set with BALB/C mice (110 mg/kg single IV injection, 10 BALB/C mice). The “Number of dead animal” value came out at 0 in the data set on BALB/C mice (50 mg/kg single IV injection, 10 BALB/C mice, observed 17 days); 0 in the data set on BALB/C mice (70 mg/kg single IV injection, 10 BALB/C mice, observed 17 days); 0 with BALB/C mice (90 mg/kg single IV injection, 10 BALB/C mice, observed 17 days); 1 in the data set with BALB/C mice (110 mg/kg single IV injection, 10 BALB/C mice, observed 17 days). The “Behaviors and death observed” value in the data set with BALB/C mice was “no pilo-erection, hair tousle and lackluster, lethargy, stoop, irritable reaction and death”.
Consider `COCCOCCOCCOCCOCCOCC(=O)N[C@H](C)C(=O)N[C@H](C)C(=O)N[C@H](CC(N)=O)C(=O)Nc1ccc(COC(=O)OC(C(=O)OC2C[C@@]3(O)[C@@H](OC(=O)c4ccccc4)[C@H]4[C@](C)(C(=O)[C@H](OC(C)=O)C(=C2C)C3(C)C)[C@@H](O)CC2OC[C@]24OC(C)=O)[C@@H](NC(=O)c2ccccc2)c2ccccc2)cc1` (some centres unmarked) [S2′], for which the “Activation ratio (%) in homogenates from different tumor tissues” value in the data set with Human heart (37°) was “none”. Also, the “solubility in Solvent 1” value in data set [1] (Solvent 1 injectable water, dissolution concentration 10 mg/ml) is given as “soluble”. Also, the “solubility in Solvent 2” value in data set [1] (Solvent 2: 50% injectable water, 45%-49% propanediol, 1%-5% Tween80, dissolution concentration 10 mg/ml) is “soluble”. Besides, the “Concentration achieved, completely dissolved in both solvent 1 and solvent 2” value in data set [1] (solvent 2 50% injectable water, 42%-49% propanediol, 1%-8% Tween80) was 10000 µg/mL. For the same compound, in data set [2], the “Inhibition on tumor growth, in words” value is “greatly improved”. Besides, the “Size of tumor (mm^3) Day 10” value in data set [2] (S1′-S4′ 24 mg/kg) amounted to 60.17 ± 30.26 mm^3. Further, in data set [2] (S1′-S4′ 24 mg/kg), the “inhibitory rate on tumor Day 10” value is 36.4%. Besides, the “Size of tumor (mm^3) Day 24” value in data set [2] (S1′-S4′ 24 mg/kg) came to 42.39 ± 62.24 mm^3. Also, the “inhibitory rate on tumor Day 24” value in data set [2] (S1′-S4′ 24 mg/kg) turned out to be 83.01%. Besides, the “Inhibitory rate on metastasis” value in the data set with 4T1 cells (setting [11]) was found to be 94.1%. Further, the “Number of metastasized tumor” value in the data set with 4T1 cells (setting [11]) worked out at 8 ± 7. Also, the “Inhibitory effect” value in the data set with 4T1 cells is on record as “greatly improved”. In the data set with BALB/C mice, the “Behaviors and death observed” value was “no pilo-erection, hair tousle and lackluster, lethargy, stoop, irritable reaction and death”. In addition, the “MTD (maximum tolerated dose)” value in the data set with BALB/C mice (BALB/C mice) is reported as “about 90 mg/kg”. Further, the “Mortality rate (%)” value with BALB/C mice (BALB/C mice, single iv, 125 mg/kg) came to 0%; with BALB/C mice (BALB/C mice, single iv, 150 mg/kg), 0%; with BALB/C mice (BALB/C mice, single iv, 175 mg/kg), 0%; with BALB/C mice (BALB/C mice, single iv, 200 mg/kg) it was 10%. The “Number of dead animal” value with BALB/C mice (BALB/C mice, single iv, 125 mg/kg, 10 animals) is on record as 0; in the data set with BALB/C mice (BALB/C mice, single iv, 150 mg/kg, 10 animals), 0; with BALB/C mice (BALB/C mice, single iv, 175 mg/kg, 10 animals), 0; in the data set with BALB/C mice (BALB/C mice, single iv, 200 mg/kg, 10 animals) it was 1.
Regarding `CO[C@@]12[C@H](COC(N)=O)C3=C(C(=O)C(C)=C(N)C3=O)N1C[C@@H]1N[C@@H]12` [mitomycin, reference compound], the “Inhibitory rate on metastasis” value with 4T1 cells (setting [9]) was 5.9%. Also, in the data set with 4T1 cells (setting [10]), the “Number of metastasized tumor” value is given as 128 ± 25. Moreover, the “Mortality rate (%)” value came to 0% with BALB/C mice (6 mg/kg single IV injection, 10 BALB/C mice); 10% in the data set with BALB/C mice (7 mg/kg single IV injection, 10 BALB/C mice); 40% in the data set on BALB/C mice (8 mg/kg single IV injection, 10 BALB/C mice); 90% in the data set on BALB/C mice (9 mg/kg single IV injection, 10 BALB/C mice). The “Number of dead animal” value was found to be 0 in the data set on BALB/C mice (6 mg/kg single IV injection, 10 BALB/C mice, observed 17 days); 1 in the data set with BALB/C mice (7 mg/kg single IV injection, 10 BALB/C mice, observed 17 days); 4 with BALB/C mice (8 mg/kg single IV injection, 10 BALB/C mice, observed 17 days); 9 in the data set on BALB/C mice (9 mg/kg single IV injection, 10 BALB/C mice, observed 17 days).
